Source: US10689628B2, “Method of making variant LovD polypeptides” (THE REGENTS OF THE UNIVERSITY OF CALIFORNIA, priority 2009, dated 2020)
“Also recorded” adds a separate entry of the source.

target: T1, LovD (Aspergillus terreus, UniProt Q9Y7D1); assay: not given; details: WO 2007/139871, acyl donor with LovD and monacolin J; cited from earlier work
T1 construct: made in house; host or cells: E. coli BL21(DE3)/pAW31
T1 sequence (Q9Y7D1 whole entry): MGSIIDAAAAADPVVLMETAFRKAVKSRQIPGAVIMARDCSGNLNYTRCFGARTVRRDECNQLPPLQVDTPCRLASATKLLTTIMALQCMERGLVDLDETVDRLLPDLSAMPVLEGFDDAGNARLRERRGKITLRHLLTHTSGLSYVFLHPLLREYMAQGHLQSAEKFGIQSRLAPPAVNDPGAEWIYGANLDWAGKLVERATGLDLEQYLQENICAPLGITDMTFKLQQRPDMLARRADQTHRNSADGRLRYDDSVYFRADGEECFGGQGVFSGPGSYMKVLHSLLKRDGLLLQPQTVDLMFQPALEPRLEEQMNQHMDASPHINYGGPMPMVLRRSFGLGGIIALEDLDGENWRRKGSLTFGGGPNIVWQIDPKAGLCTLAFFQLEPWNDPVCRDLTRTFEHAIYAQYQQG

Molecule	apparent kcat [s⁻¹]
CCCC(=O)SCCNC(C)=O [SNAC, butyryl-SNAC]	0.0015
CC[C@H](C)C(=O)SCCNC(C)=O [α-S-methylbutyryl-SNAC]	~0.00067
CC(C)(COP(=O)(O)OP(=O)(O)OC[C@H]1O[C@@H](n2cnc3c(N)ncnc32)[C@H](O)[C@@H]1OP(=O)(O)O)[C@@H](O)C(=O)NCCC(=O)NCCSC(=O)c1ccccc1 [benzoyl-CoA]	0.00267

same assay, conditions: WO 2007/139871, acyl-CoA substrates; cited from earlier work

Molecule	substrate quality for LovD (in words)
CC(C)(COP(=O)(O)OP(=O)(O)OC[C@H]1O[C@@H](n2cnc3c(N)ncnc32)[C@H](O)[C@@H]1OP(=O)(O)O)[C@@H](O)C(=O)NCCC(=O)NCCSC(=O)CC(=O)O [malonyl-CoA]	inactive
CC(=O)CC(=O)SCCNC(=O)CCNC(=O)[C@H](O)C(C)(C)COP(=O)(O)OP(=O)(O)OC[C@H]1O[C@@H](n2cnc3c(N)ncnc32)[C@H](O)[C@@H]1OP(=O)(O)O [Acetoacetyl-CoA]	excellent substrates
CCCC(=O)SCCNC(=O)CCNC(=O)[C@H](O)C(C)(C)COP(=O)(O)OP(=O)(O)OC[C@H]1O[C@@H](n2cnc3c(N)ncnc32)[C@H](O)[C@@H]1OP(=O)(O)O [butyryl-CoA]	optimal alkylacyl-CoA substrate
CCCCCCCCCCCCCCCC(=O)SCCNC(=O)CCNC(=O)[C@H](O)C(C)(C)COP(=O)(O)OP(=O)(O)OC[C@H]1O[C@@H](n2cnc3c(N)ncnc32)[C@H](O)[C@@H]1OP(=O)(O)O [palmitoyl-CoA]	inactive
CC(O)CC(=O)SCCNC(=O)CCNC(=O)[C@H](O)C(C)(C)COP(=O)(O)OP(=O)(O)OC[C@H]1O[C@@H](n2cnc3c(N)ncnc32)[C@H](O)[C@@H]1OP(=O)(O)O (stereo partly drawn) [β-hydroxylbutyryl-CoA]	excellent substrates

same assay, conditions: WO 2007/139871: 1 mM monacolin J, 4 mM acyl-CoA, 10 uM LovD, 10 hours; cited from earlier work

Molecule	conversion / acylation of monacolin J with acyl-CoA [%]
CC(C)(COP(=O)(O)OP(=O)(O)OC[C@H]1O[C@@H](n2cnc3c(N)ncnc32)[C@H](O)[C@@H]1OP(=O)(O)O)[C@@H](O)C(=O)NCCC(=O)NCCSC(=O)c1ccccc1 [benzoyl-CoA]	~70
C/C=C/C(=O)SCCNC(=O)CCNC(=O)[C@H](O)C(C)(C)COP(=O)(O)OP(=O)(O)OC[C@H]1O[C@@H](n2cnc3c(N)ncnc32)[C@H](O)[C@@H]1OP(=O)(O)O [crotonyl-CoA]	6

tested on: not listed separately; assay: Native gel / SDS-PAGE of LovD proteins (oligomer, insoluble protein); type: physicochemical; details: DTT fixed at 2 mM
Description: FIG. 2. (a) SDS-PAGE gel LovD protein (WT) from E. coli BL21(DE3)/pAW31; (b) native gel of LovD protein (WT) and A1-A8 respectively, DTT was fixed at 2 mM for all samples.
LovD protein was purified to homogeneity by one step Ni-NTA column (FIG. 2a). […] The disulfide bonds between the proteins are spurious for protein crystallization because the monomer and oligomer are different species (see, e.g. Nemoto et al., 2006; J Appl Physiol 100(5):1688-91). One of our purposes was to remove the intermolecular disulfide bonds. By replacing the cysteine residues with alanine, we hope the resultant LovD mutant can keep the acyl-transferase activity while breaking the intermolecular disulfide bonds. […] We reasoned that the solubility of LovD may be changed when the intermolecular disulfide bonds between wild type LovD was eliminated (see, e.g. Lindberg et al., M. 2004; Proc Natl Acad Sci USA 101(45):15893-8).
We ran the native gel of all the mutant proteins together with the wild type LovD protein (FIG. 2b).

Molecule	native gel: oligomer / monomer / stability (in words)
A4: LovD C72A mutant (protein, UniProt Q9Y7D1 1-413, looked up, variant C72A) Monacolin J acid …: MGSIIDAAAAADPVVLMETAFRKAVKSRQIPGAVIMARDCSGNLNYTRCFGARTVRRDECNQLPPLQVDTPARLASATKLLTTIMALQCMERGLVDLDETVDRLLPDLSAMPVLEGFDDAGNARLRERRGKITLRHLLTHTSGLSYVFLHPLLREYMAQGHLQSAEKFGIQSRLAPPAVNDPGAEWIYGANLDWAGKLVERATGLDLEQYLQENICAPLGITDMTFKLQQRPDMLARRADQTHRNSADGRLRYDDSVYFRADGEECFGGQGVFSGPGSYMKVLHSLLKRDGLLLQPQTVDLMFQPALEPRLEEQMNQHMDASPHINYGGPMPMVLRRSFGLGGIIALEDLDGENWRRKGSLTFGGGPNIVWQIDPKAGLCTLAFFQLEPWNDPVCRDLTRTFEHAIYAQYQQG	not very stable; also recorded: less proteins
A8: LovD C380A mutant (protein, UniProt Q9Y7D1 1-413, looked up, variant C380A) Monacolin J acid …: MGSIIDAAAAADPVVLMETAFRKAVKSRQIPGAVIMARDCSGNLNYTRCFGARTVRRDECNQLPPLQVDTPCRLASATKLLTTIMALQCMERGLVDLDETVDRLLPDLSAMPVLEGFDDAGNARLRERRGKITLRHLLTHTSGLSYVFLHPLLREYMAQGHLQSAEKFGIQSRLAPPAVNDPGAEWIYGANLDWAGKLVERATGLDLEQYLQENICAPLGITDMTFKLQQRPDMLARRADQTHRNSADGRLRYDDSVYFRADGEECFGGQGVFSGPGSYMKVLHSLLKRDGLLLQPQTVDLMFQPALEPRLEEQMNQHMDASPHINYGGPMPMVLRRSFGLGGIIALEDLDGENWRRKGSLTFGGGPNIVWQIDPKAGLATLAFFQLEPWNDPVCRDLTRTFEHAIYAQYQQG	very similar to WT
A2: LovD C49A mutant (protein, UniProt Q9Y7D1 1-413, looked up, variant C49A) Monacolin J acid …: MGSIIDAAAAADPVVLMETAFRKAVKSRQIPGAVIMARDCSGNLNYTRAFGARTVRRDECNQLPPLQVDTPCRLASATKLLTTIMALQCMERGLVDLDETVDRLLPDLSAMPVLEGFDDAGNARLRERRGKITLRHLLTHTSGLSYVFLHPLLREYMAQGHLQSAEKFGIQSRLAPPAVNDPGAEWIYGANLDWAGKLVERATGLDLEQYLQENICAPLGITDMTFKLQQRPDMLARRADQTHRNSADGRLRYDDSVYFRADGEECFGGQGVFSGPGSYMKVLHSLLKRDGLLLQPQTVDLMFQPALEPRLEEQMNQHMDASPHINYGGPMPMVLRRSFGLGGIIALEDLDGENWRRKGSLTFGGGPNIVWQIDPKAGLCTLAFFQLEPWNDPVCRDLTRTFEHAIYAQYQQG	very similar to WT
A5: LovD C89A mutant (protein, UniProt Q9Y7D1 1-413, looked up, variant C89A) Monacolin J acid …: MGSIIDAAAAADPVVLMETAFRKAVKSRQIPGAVIMARDCSGNLNYTRCFGARTVRRDECNQLPPLQVDTPCRLASATKLLTTIMALQAMERGLVDLDETVDRLLPDLSAMPVLEGFDDAGNARLRERRGKITLRHLLTHTSGLSYVFLHPLLREYMAQGHLQSAEKFGIQSRLAPPAVNDPGAEWIYGANLDWAGKLVERATGLDLEQYLQENICAPLGITDMTFKLQQRPDMLARRADQTHRNSADGRLRYDDSVYFRADGEECFGGQGVFSGPGSYMKVLHSLLKRDGLLLQPQTVDLMFQPALEPRLEEQMNQHMDASPHINYGGPMPMVLRRSFGLGGIIALEDLDGENWRRKGSLTFGGGPNIVWQIDPKAGLCTLAFFQLEPWNDPVCRDLTRTFEHAIYAQYQQG	not very stable; also recorded: less proteins
A7: LovD C266A mutant (protein, UniProt Q9Y7D1 1-413, looked up, variant C266A) Monacolin J acid …: MGSIIDAAAAADPVVLMETAFRKAVKSRQIPGAVIMARDCSGNLNYTRCFGARTVRRDECNQLPPLQVDTPCRLASATKLLTTIMALQCMERGLVDLDETVDRLLPDLSAMPVLEGFDDAGNARLRERRGKITLRHLLTHTSGLSYVFLHPLLREYMAQGHLQSAEKFGIQSRLAPPAVNDPGAEWIYGANLDWAGKLVERATGLDLEQYLQENICAPLGITDMTFKLQQRPDMLARRADQTHRNSADGRLRYDDSVYFRADGEEAFGGQGVFSGPGSYMKVLHSLLKRDGLLLQPQTVDLMFQPALEPRLEEQMNQHMDASPHINYGGPMPMVLRRSFGLGGIIALEDLDGENWRRKGSLTFGGGPNIVWQIDPKAGLCTLAFFQLEPWNDPVCRDLTRTFEHAIYAQYQQG	not very stable; also recorded: less proteins
A6: LovD C216A mutant (protein, UniProt Q9Y7D1 1-413, looked up, variant C216A) Monacolin J acid …: MGSIIDAAAAADPVVLMETAFRKAVKSRQIPGAVIMARDCSGNLNYTRCFGARTVRRDECNQLPPLQVDTPCRLASATKLLTTIMALQCMERGLVDLDETVDRLLPDLSAMPVLEGFDDAGNARLRERRGKITLRHLLTHTSGLSYVFLHPLLREYMAQGHLQSAEKFGIQSRLAPPAVNDPGAEWIYGANLDWAGKLVERATGLDLEQYLQENIAAPLGITDMTFKLQQRPDMLARRADQTHRNSADGRLRYDDSVYFRADGEECFGGQGVFSGPGSYMKVLHSLLKRDGLLLQPQTVDLMFQPALEPRLEEQMNQHMDASPHINYGGPMPMVLRRSFGLGGIIALEDLDGENWRRKGSLTFGGGPNIVWQIDPKAGLCTLAFFQLEPWNDPVCRDLTRTFEHAIYAQYQQG	very similar to WT
